The results in this text go back to patent US6979747B2, “Antioxidants, preparation processes and their uses” (Centre National de la Recherche Scientifique (CNRS), priority 1999, dated 2005).

The structures appear in SMILES notation.

One data set has as its system HIV-1 LAI. Put plainly: Antiviral activity in quiescent or PHA-P activated PBLs infected with HIV-1 LAI. The data set is classed as cell-based. To be noted: quiescent PBLs or PBLs activated by PHA-P. The method, then:
For some experiments, the PBMCs and the PBLs are activated for 48 h with 1 μg/ml of a mitogen, PHA-P (Difco Laboratories). The PBMCs and the PBLs are cultured in medium A (quiescent) or B (activated). The cells are cultured at 37° C. in an atmosphere saturated with moisture under 5% of CO2. The culture supernatants are removed and the culture media are replaced every three or four days. At each renewal of the culture media, the cell viability is evaluated by coloring with trypan blue or by microscopic observation.
The MDMs were infected with the reference isolate with macrophage tropism, HIV-1/Ba-L. The PBMCs and the PBLs were infected with the reference isolate with lymphocyte tropism HIV-1 LAI. The viral stock were formed by amplifying these strains in vitro using umbilical blood mononucleated cells (UBM(s) preactivated with 1 μg/ml of PHA-P and cultured in medium A supplemented by 20 IU/ml of IL-2. In order to remove the soluble factors, such as cytokines, the culture supernatants were ultracentrifuged at 360 000 g for 5 min, and the pellets were resuspended in RPMI 1640. The viral stocks thus formed were subsequently titred using PBMCs activated with PHA-P. The TCID50s (50% Tissue Culture Infectious Dose) were calculated using the Kärber formula.
A million MDMs were infected with 10 000 TCID50s of the HIV-1/Ba-L strain. This amount of virus corresponds to a multiplicity of infection (m.o.i.) equal to 0.01. The excess of virus is removed 24 h after by washing with cells using RPMI 1640. […]
The viral replication is measured by assaying the RT activity in the culture supernatants according to the technique described by F. Rey et al. (Biochem. Biophys. Res. Comm., 1984, 121, 126-133). The radioactivity incorporated during the extension of the complementary strand of a poly-rA synthetic matrix in the presence of an oligo-dT12-18 primer and of a radiolabeled substrate, [^3H-methyl]thymidine-5′-triphosphate ([^3H]TPP), makes it possible to assay the enzymatic activity of RT. […] The β radioactivity is quantified by means of a scintillation counter (Packard Bell). […]

In data set [1] the test system is HIV-1/Ba-L. As to the kind of experiment: Antiviral activity in human spleen macrophages infected with HIV-1/Ba-L. The data set is classed as cell-based. The settings on record: Human immunodeficiency virus 1, BAL, Macrophage, read-out: concentration that decreases HIV replication by 50%. An excerpt:
(§1) The spleen is dissected and sieved and then the mononuclear cells are isolated using a density gradient, on a Ficoll cushion. The monocytes/macrophages are obtained by adherence to the plastic. The monocytes were allowed to differentiate into macrophages for 7 days, at which time they were infected.
Retroviral replication within this cell population, and thus the effectiveness of a molecule such as I-152, is conditioned partly by the level of cell differentiation. It was therefore important to make sure of the antiviral effectiveness of I-152 in monocytes/macrophages with a degree of maturation which can be different from that of MDMs. We have thus evaluated the antiviral activity of I-152 and its ability to regenerate the intracellular level of GSH in spleen macrophages. In this cell populations, the HIV-1/Ba-L strain also replicates at high […]. […] This is because the concentration of 38 μM decreases HIV replication by 50% in this spleen cell population (table III). […] It should be noted that, in the spleen macrophages, as in the macrophages derived from blood monocytes, infection by HIV leads to a deficiency of GSH (MDM; FIG. 16).

Data set [2] has as its system GSH. Put plainly: Intracellular concentration of GSH in spleen macrophages. The data set is classed as cell-based, human. The method, then: as §1
The intracellular GSH was assayed by means of the assay kit sold by Cayman. This method for assaying glutathione is an adaptation of that described by O. W. Griffith et al. (1980).

Data set [3] has as its system total glutathione (GSH+GSSG). As to the kind of experiment: Total intracellular glutathione in quiescent PBMCs. The data set is classed as cell-based, human.
Data set [4] has as its system GSH. Put plainly: Intracellular GSH in MDMs stimulated with LPS and IFN-γ. The data set is classed as cell-based, human. The settings on record: MDMs stimulated with LPS (1 μg/ml) and IFN-γ (100 IU/ml). How it is done:
The intracellular GSH was assayed by means of the assay kit sold by Cayman. This method for assaying glutathione is an adaptation of that described by O. W. Griffith et al. (1980). Tumor necrosis factor (TNF-α), like the oxygen-comprising or nitrogen-comprising radical components, plays a major role in the apoptotic processes associated with infection the HIV. Furthermore, the radical components can promote the synthesis of this proinflammatory cytokine. For this reason, the effects of I-152 in decreasing the synthesis of TNF-α were thus looked for in MDMs stimulated by a bacterial lipopolysaccharide and interferon (IFN-γ).

Data set [5] concerns HIV-1/Ba-L. Put plainly: Antiviral activity in MDM cultures infected with HIV-1/Ba-L (RT activity in culture supernatants). The data set is classed as cell-based. The settings on record: Human immunodeficiency virus 1, BAL; MDMs infected with 1 000 TCID50 (m.o.i. 0.001); read-out: 50% effective dose (ED).

For `CC(=O)N[C@@H](CS)C(=O)NCCSC(C)=O` [I-152, N-(N-acetyl-L-cysteinyl)-S-acetylcysteamine], the “antiviral activity (in words)” value in the data set on HIV-1 LAI is given as “inhibits viral replication”. Moreover, in the data set on HIV-1/Ba-L [1], the EC50 is 38 µM. Besides, in the data set on GSH [2], the “concentration from which the GSH increase is saturated” value was not below 250 µM and the “intracellular level of GSH (in words)” value is “increases the intracellular level of GSH”. The “times more active than NAC” value in data set [3] (from concentrations supplementing the culture medium giving equivalent glutathione) was 120 times. In data set [3] (quiescent PBMCs, 250 μM), the “intracellular glutathione at high concentration (in words)” value was “decrease”. The “effect on intracellular level of glutathione (in words)” value in data set [3] (quiescent PBMCs, 24 h treatment) was “increases the intracellular level of glutathione”. The “intracellular concentration of total glutathione” value in data set [3] (quiescent PBMCs, dose 125 μM) was found to be 2.64 ± 0.13 µM. The “concentration of GSH (in words)” value in the data set with GSH [4] was “increases the concentration of GSH”. For the same molecule, the “cytotoxicity (in words)” value with PBLs is “not cytotoxic”. Further, the EC50 in the data set with HIV-1/Ba-L [5] was 3 µM.
